Active and inactive are the calls of the source. How the calls were made is not given here.
Columns and labels:
hERG (Kv11.1, KCNH2) [1] = molecular target: T1, hERG (Kv11.1, KCNH2) (Homo sapiens, UniProt Q12809); assay: in vitro
Description: MMV: Malaria Box compounds were tested for inhibition of the human ether a go-go related gene (hERG), Kv11.1 channel, using IonWorks 384-well patch clamp electrophysiology at 1.1uM (3 independent assay plates up to 12 cells per concentration).

hERG (Kv11.1, KCNH2) [2] = molecular target: T1, hERG (Kv11.1, KCNH2); assay: in vitro; remark: listed apart in the source
Description: MMV: Malaria Box compounds were tested for inhibition of the human ether a go-go related gene (hERG), Kv11.1 channel, using IonWorks 384-well patch clamp electrophysiology at 11.1uM (3 independent assay plates up to 12 cells per concentration).

T1 sequence (Q12809 whole entry): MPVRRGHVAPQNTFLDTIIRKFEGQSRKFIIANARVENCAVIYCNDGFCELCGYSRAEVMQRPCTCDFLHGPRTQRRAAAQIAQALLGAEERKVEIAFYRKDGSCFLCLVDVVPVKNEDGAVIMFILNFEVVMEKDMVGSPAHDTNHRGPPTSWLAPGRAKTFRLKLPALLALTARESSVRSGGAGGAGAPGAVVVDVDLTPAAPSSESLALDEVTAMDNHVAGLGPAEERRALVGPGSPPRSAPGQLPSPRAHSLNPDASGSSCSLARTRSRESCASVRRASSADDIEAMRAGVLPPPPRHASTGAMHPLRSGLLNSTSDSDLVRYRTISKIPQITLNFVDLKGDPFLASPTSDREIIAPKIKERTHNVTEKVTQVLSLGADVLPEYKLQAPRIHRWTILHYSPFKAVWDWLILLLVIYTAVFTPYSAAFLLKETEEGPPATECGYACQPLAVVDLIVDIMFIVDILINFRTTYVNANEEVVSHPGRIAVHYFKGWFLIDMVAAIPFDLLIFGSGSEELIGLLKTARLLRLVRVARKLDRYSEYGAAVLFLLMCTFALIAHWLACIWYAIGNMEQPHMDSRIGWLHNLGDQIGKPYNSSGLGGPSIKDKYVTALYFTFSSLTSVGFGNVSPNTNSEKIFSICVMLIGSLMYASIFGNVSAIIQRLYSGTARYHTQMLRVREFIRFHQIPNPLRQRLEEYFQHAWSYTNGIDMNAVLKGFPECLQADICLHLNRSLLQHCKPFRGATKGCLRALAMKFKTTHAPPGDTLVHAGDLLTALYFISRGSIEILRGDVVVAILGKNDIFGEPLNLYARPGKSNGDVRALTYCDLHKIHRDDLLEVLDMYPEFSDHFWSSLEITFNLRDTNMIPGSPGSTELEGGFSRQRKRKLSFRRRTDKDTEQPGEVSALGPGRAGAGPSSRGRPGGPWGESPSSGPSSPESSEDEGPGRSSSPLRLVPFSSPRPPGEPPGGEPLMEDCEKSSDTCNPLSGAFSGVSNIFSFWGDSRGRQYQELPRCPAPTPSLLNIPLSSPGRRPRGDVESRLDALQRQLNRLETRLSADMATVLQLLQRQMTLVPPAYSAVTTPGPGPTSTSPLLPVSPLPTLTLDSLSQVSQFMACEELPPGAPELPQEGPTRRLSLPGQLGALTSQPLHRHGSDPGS

Compound	inhibition at 1.1 µM (hERG (Kv11.1, KCNH2) [1]) [%]	inhibition at 11.1 µM (hERG (Kv11.1, KCNH2) [2])
COc1ccc(Nc2nc(NCc3ccccc3)c3ccccc3n2)cc1	0	53% (active)
COc1ccc(-c2cc(=O)oc3c4c(ccc23)OCN(Cc2ccc(F)cc2)C4)cc1	24	16% (inactive)
CCN(Cc1ccccc1)C1CCN(Cc2cc(Br)ccc2O)CC1	18	96% (active)
CCOc1cccc2sc(N(Cc3cccnc3)C(=O)C3CCCCC3)nc12	8	54% (active)
CCOC(=O)c1c(NC(=O)c2ccccc2)sc2c(O)c(CN(CC)CC)ccc12	4	23% (inactive)
COc1cccc(-c2nn(C)c3sc(C(=O)NCCN4CCN(c5ccccc5F)CC4)cc23)c1	21	91% (active)
COc1cc(CNCCc2ccc(Cl)cc2)cc(OC)c1O	16	59% (active)
CC1CCN(Cc2ccc(NC(=O)c3cc4ccc5cccnc5c4[nH]3)cc2)CC1	64	101%
COc1ccc(C(=O)Nc2nonc2-c2ccc(OC)c(OC)c2)cc1Cl	7	9% (inactive)
COc1ccccc1N1CCN(C(CNS(=O)(=O)c2ccc(Cl)cc2)c2cccnc2)CC1 (stereo not drawn)	4	44%
CCn1c(CN2CCN(Cc3ccccc3)CC2)nc2cc(NC(=O)c3cccs3)ccc21	71	100%
OC(CNC1CCCCC1)Cn1c2ccc(I)cc2c2cc(I)ccc21 (stereo not drawn)	-5	12% (inactive)
CCOC(=O)c1cnc2ccc(OC)cc2c1Nc1ccc(N2CCN(C)CC2)cc1	15	15% (inactive)
CCCCc1ccc(NS(=O)(=O)c2cc3c4c(c2)CCN4C(=O)CC3)cc1	2	26%
Cn1c(C(=O)c2cccc3ccccc23)nc2ccccc21	-4	1% (inactive)
COc1cccc(C=Cc2nc(=O)c3ccccc3o2)c1OC	-3	-4% (inactive)
Cc1ccc2c(C)nc(Nc3nc(C)cc(-c4ccccc4)n3)nc2c1	-1	4% (inactive)
Oc1ccccc1CN1CCC2(CCCN(Cc3ccccc3F)C2)C1 (stereo not drawn)	1	59% (active)
O=C(Nc1ccc(CN2CCOCC2)cc1)c1ccc(-c2cc(Cl)ccc2Cl)o1	8	88% (active)
c1ccc(/C2=N/c3ccccc3/N=C(/c3ccccc3)c3ccccc32)cc1	7	3% (inactive)
CCCc1c(C)nc2ccccc2c1O	-17	7% (inactive)
O=C(NC1CCN(Cc2ccccc2)CC1)c1cc(-c2ccncc2)nc2ccc(Cl)cc12	14	72% (active)
N=c1c2ccccc2nnn1-c1cccc(C(F)(F)F)c1	-3	11% (inactive)
CC(C)c1ccc(CNCC(O)c2ccccc2)cc1 (stereo not drawn)	15	59% (active)
COC(=O)c1ccc(C2C3=C(O)CC(c4ccc(F)cc4)CC3=Nc3ccccc3N2C(=O)c2ccccc2)cc1 (stereo not drawn)	98	105%
CSC1=NC(=Nc2c(C)cccc2C)C2(CCC(C(C)(C)C)CC2)N1c1ccc(Cl)cc1 (stereo not drawn)	-5	5% (inactive)
O=C(Nc1ccc(F)c(Cl)c1)Nc1ccc(Cl)c(Cl)c1	-11	-3% (inactive)

Compound	inhibition at 1.1 µM (hERG (Kv11.1, KCNH2) [1]) [%]	inhibition at 11.1 µM (hERG (Kv11.1, KCNH2) [2])
CC(C)=CCN1CCC(C(=O)Nc2ccc(-c3nc4ccccc4[nH]3)cc2)CC1	0	29%
OC1CCCCC1C1(NC(=S)Nc2ccccc2)CCCCC1 (stereo not drawn)	26	51% (active)
CCOC(=O)C1=C(c2ccccc2)N=c2sc(=Cc3cc(C)n(-c4ccc(F)cc4)c3C)c(=O)n2C1c1cccc(OC)c1OC (stereo not drawn)	3	11% (inactive)
CCN(CC)c1ccc(NC(=O)c2cccs2)cc1	-1	1% (inactive)
CCOC(=O)c1cnc2ccc(Cl)cc2c1NCCCN(C)C	21	85% (active)
Cc1ccc(-c2nc3ccccc3o2)cc1NCc1cc(Cc2ccccc2)ccc1O	11	10% (inactive)
COc1ccc(CNC(=O)c2cc3c(=O)n4ccccc4nc3n(CCc3ccccc3)c2=N)cc1	10	45%
O=C(NC1CCCC1)c1ccc(N2CCC(NCc3cccc(C(F)(F)F)c3)CC2)cc1	76	101%
c1ccc2c(NCCCCCCNc3c4c(nc5ccccc35)CCCC4)c3c(nc2c1)CCCC3	36	102% (active)
Cc1[nH]c(-c2ccc(F)cc2)cc1C(=O)NC1CCN(Cc2ccccc2)CC1	55	96%
C=CCc1c(C)nc2ccccc2c1O	11	11% (inactive)
O=C(NC(c1ccccc1)c1ccc2cccnc2c1O)c1ccccc1 (stereo not drawn)	1	17% (inactive)
O=C(Nc1ccc(Cl)cc1)N1CCN(c2ccc3nncn3n2)CC1	0	58% (active)
Nc1ccc(-c2nc3cc(Oc4ccc(Oc5ccc6[nH]c(-c7ccc(N)cc7)nc6c5)cc4)ccc3[nH]2)cc1	18	23% (inactive)
CCn1c(SCC(=O)Nc2cc(C(F)(F)F)ccc2Cl)nc2ccccc2c1=O	-1	34%
Nc1nc(Nc2cccc(F)c2)nc2ccccc12	11	59% (active)
Oc1ccc2ccccc2c1CNc1nc2ccccc2[nH]1	-5	21% (inactive)
O=C(NNc1cc(N2CCCC2)nc(N2CCCC2)n1)c1ccccc1	4	35%
COc1cccc(NC(=O)Cn2c(C)c(C#N)c3ccccc32)c1	2	-4% (inactive)
CCCN(CCC)CCCNC(=O)c1cc2c(-c3ccc(OC)c(OC)c3)nn(C)c2s1	6	47%
Oc1c2c(nc3cc(-c4ccccc4)nn13)CCCC2	2	-2% (inactive)
Clc1ccc2[nH]c3c(NCCCN4CCOCC4)ncnc3c2c1	29	89% (active)
COc1cc2c(cc1OC)C1=NNC(=O)C1=NC(C)(C)C2	9	11% (inactive)
Cc1cc(C)cc(Nc2cc(C)nc3nc(C(F)(F)F)nn23)c1	20	40%
CC(C)OCc1cc(CN2CCN(c3cccc(Cl)c3)CC2)c(O)c2ncccc12	65	100%
CCN1CCN(c2cc(C)c3cc(NC(=O)c4ccc(OC)c(OC)c4)ccc3n2)CC1	15	63% (active)
COc1ccc2nc(C)cc(Nc3ccc(Cl)cc3)c2c1	67	111%

From ChEMBL document CHEMBL3301458, “MMV Malaria Box hERG screening”
